# Values of other authors as cited in PMC10985535 (RSC Advances, 2024).
# Tested on: CT-DNA
smiles,measurement,value
CC[n+]1c(-c2ccccc2)c2cc(N)ccc2c2ccc(N)cc21.[Br-] [EtBr],Ksv of classical intercalator,10^7 M^−1
